Positions count from the first letter of the chain named. “And” between values parts separate entries of the source, which are not always exact repeats. Equal values may be shown once. Read-outs that look alike come from different tables or passages of the source.
Legend:
StTdcB = test system: StTdcB; design: method as in PMID 17046821; settings: 5 mM AMP; cited from earlier work
Q89A-hSR [1] = target: T1, Q89A-hSR (Homo sapiens, UniProt Q9GZT4, Q89A); assay: L-Ser racemisation (DAAO-coupled discontinuous assay); format: biochemical; settings: L-Ser racemisation by Q89A-hSR, 2 mM ATP vs absence of nucleotide
T1 construct: hexa-His; made in house; host or cells: E. coli BL21 CodonPlus (DE3)-RIL with GroEL/GroES
T1 sequence (Q9GZT4 1-340 Q89A): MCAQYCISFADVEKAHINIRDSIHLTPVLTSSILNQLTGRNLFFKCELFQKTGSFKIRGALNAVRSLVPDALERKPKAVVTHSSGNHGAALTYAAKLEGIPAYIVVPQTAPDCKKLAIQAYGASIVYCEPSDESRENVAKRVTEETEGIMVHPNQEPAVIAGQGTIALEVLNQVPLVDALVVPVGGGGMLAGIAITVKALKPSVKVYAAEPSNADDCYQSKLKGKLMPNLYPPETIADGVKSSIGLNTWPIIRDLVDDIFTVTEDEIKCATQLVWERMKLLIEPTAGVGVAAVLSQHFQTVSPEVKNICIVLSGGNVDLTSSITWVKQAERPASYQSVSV
Experimental: (§1) The formation of D-serine as a function of L-serine concentration was determined using a discontinuous assay, based on oxidation of D-serine by the enzyme DAAO (Sigma Aldrich, A5222)[18],[37],[54]. This reaction produces hydrogen peroxide, that is used by the horseradish peroxidase to oxidize o-dianisidine dihydrochloride to form a chromophoric product. After the addition of sulphuric acid to increase the solubility, the concentration of this product can be measured at 550 nm. L-serine at various final concentrations was added to buffer A containing 1.5 µM hSR, in the absence and presence of 2 mM ATP. The reaction mixture was incubated at 37 °C and aliquots were periodically removed to determine D-serine concentration. L-serine was purified from any D-serine contaminations through 48 hours of incubation with 400 U/ml of DAAO and 100 U/ml of catalase, which were subsequently thermally inactivated. Absolute D-serine concentrations were determined using calibrations curves obtained by reacting known D-serine concentrations with DAAO. Absorbance signal was acquired by a Halo LED 96 plate reader (Dynamica Scientific, UK).
(§2) The half-maximal activation (EC50) caused by ATP binding to hSR was calculated with Eq. (1):1 vi/v0=a⋅[ATP]/EC50+[ATP] where vi is the velocity of the reaction catalysed by the enzyme in presence of a defined ATP concentration, v0 is the velocity of the reaction catalysed by the enzyme in the absence of ATP and a is the difference between the maximum and the basal activity. The dissociation constant (KD) of ligands for hSR calculated by fluorimetric titrations was calculated with Eq. (2):2 y=y0+a⋅[L]/KD+[L] where y is the fluorescence emission intensity, [L] is the ligand concentration, y0 is an offset and a is the amplitude. The fluorescence emission intensity was collected at 480 nm for glycine titration, at 492 nm for ATP titration and at 478 nm for ATP titration in the presence of glycine. […] Catalytic efficiency for the dehydratase activity of Q89A-hSR on D-Ser was calculated at [D-Ser] < Km, where equation (3) becomes v0≅Vmax/Km .

Q89M-hSR [2] = target: T2, Q89M-hSR (Homo sapiens, UniProt Q9GZT4, Q89M); assay: as above; format: biochemical; settings: L-Ser racemisation by Q89M-hSR, 2 mM ATP vs absence of nucleotide
T2 construct: hexa-His; made in house; host or cells: E. coli BL21 CodonPlus (DE3)-RIL with GroEL/GroES
T2 sequence (Q9GZT4 1-340 Q89M): T1 sequence (Q9GZT4 1-340 Q89A) with A89M
Experimental: as §1, §2

hSR [3] = target: T3, hSR (Homo sapiens, UniProt Q9GZT4); assay: as above; format: biochemical; settings: L-Ser racemisation by hSR, 2 mM ATP vs absence of nucleotide
T3 construct: His tag; made in house; host or cells: Escherichia coli (co-expressed with chaperones)
T3 sequence (Q9GZT4 1-340): T1 sequence (Q9GZT4 1-340 Q89A) with A89Q
Experimental: as §1, §2

Q89A-hSR [4] = target: T1, Q89A-hSR; assay: L-Ser dehydration (LDH-coupled assay); format: biochemical; settings: L-Ser dehydration by Q89A-hSR, 2 mM ATP vs absence of nucleotide
Experimental: (§3) The initial velocity of L-serine dehydration by hSR was monitored by a coupled assay with lactate dehydrogenase (LDH)[5] as previously reported. Nicotinamide adenine dinucleotide (NADH) consumption was followed at 340 nm using a Varian Cary4000 spectrophotometer. The assay solution in buffer A contained 5 mM DTT, 30 U/ml LDH and 300 μM NADH. The concentration of magnesium used in the assay was always higher than or equal to the concentration of ATP. If not otherwise stated, it was set to 2 mM. The protein concentration used in the assay for L-Ser dehydration was 0.4 and 1.6 μM in the presence and absence of 2 mM ATP, respectively. The concentration used in the assay for D-Ser dehydration was 3.1 and 6.0 μM in the presence and absence of ATP, respectively.
(§4) The half-maximal activation (EC50) caused by ATP binding to hSR was calculated with Eq. (1):1 vi/v0=a⋅[ATP]/EC50+[ATP] where vi is the velocity of the reaction catalysed by the enzyme in presence of a defined ATP concentration, v0 is the velocity of the reaction catalysed by the enzyme in the absence of ATP and a is the difference between the maximum and the basal activity. The dissociation constant (KD) of ligands for hSR calculated by fluorimetric titrations was calculated with Eq. (2):2 y=y0+a⋅[L]/KD+[L] where y is the fluorescence emission intensity, [L] is the ligand concentration, y0 is an offset and a is the amplitude. The fluorescence emission intensity was collected at 480 nm for glycine titration, at 492 nm for ATP titration and at 478 nm for ATP titration in the presence of glycine. The kinetic parameters were calculated using the Michaelis –Menten equation:3 v0=Vmax⋅[S]/Km+[S] where v0 is the initial enzymatic rate, Vmax is the rate at substrate saturation, Km is the Michaelis constant and [S] is the substrate concentration. Catalytic efficiency for the dehydratase activity of Q89A-hSR on D-Ser was calculated at [D-Ser] < Km, where equation (3) becomes v0≅Vmax/Km .

Q89M-hSR [5] = target: T2, Q89M-hSR; assay: L-Ser dehydration (LDH-coupled assay); format: biochemical; settings: L-Ser dehydration by Q89M-hSR, 2 mM ATP vs absence of nucleotide
Experimental: as §3, §4

Q89A-hSR [6] = target: T1, Q89A-hSR; assay: D-Ser dehydration (LDH-coupled assay); format: biochemical; settings: D-Ser dehydration by Q89A-hSR, ATP vs absence of nucleotide
Experimental: as §3, §4

Q89M-hSR [7] = target: T2, Q89M-hSR; assay: D-Ser dehydration (LDH-coupled assay); format: biochemical; settings: D-Ser dehydration by Q89M-hSR, 2 mM ATP vs absence of nucleotide
Experimental: as §3, §4

hSR [8] = target: T3, hSR; assay: D-Ser dehydration (LDH-coupled assay); format: biochemical; settings: D-Ser dehydration by hSR
Experimental: as §3, §4

Q89A-hSR [9] = target: T1, Q89A-hSR; assay: Activation of L-Ser dehydratase activity by ATP; format: biochemical
Experimental: (§5) Nicotinamide adenine dinucleotide (NADH) consumption was followed at 340 nm using a Varian Cary4000 spectrophotometer. The assay solution in buffer A contained 5 mM DTT, 30 U/ml LDH and 300 μM NADH. The concentration of magnesium used in the assay was always higher than or equal to the concentration of ATP. If not otherwise stated, it was set to 2 mM. […] The concentration used in the assay for D-Ser dehydration was 3.1 and 6.0 μM in the presence and absence of ATP, respectively.
(§6) The fluorescence emission intensity was collected at 480 nm for glycine titration, at 492 nm for ATP titration and at 478 nm for ATP titration in the presence of glycine. The kinetic parameters were calculated using the Michaelis –Menten equation:3 v0=Vmax⋅[S]/Km+[S] where v0 is the initial enzymatic rate, Vmax is the rate at substrate saturation, Km is the Michaelis constant and [S] is the substrate concentration.

Q89M-hSR [10] = target: T2, Q89M-hSR; assay: Activation of L-Ser dehydratase activity by ATP; format: biochemical
Experimental: as §5, §6

Q89M-hSR [11] = target: T2, Q89M-hSR; assay: Fluorimetric titrations (PLP fluorescence emission); format: binding
Experimental: Fluorescence emission spectra upon excitation at 412 nm were collected using a FluoroMax-3 fluorometer (HORIBA Jobin Yvon, Kyoto, Japan) at 20.0 ± 0.5 °C. […] Binding of either glycine or ATP was measured by direct titrations of the protein solution in the range 0–1.2 mM and 0–1.0 mM, respectively. […] Spectra were corrected for buffer contribution. Far-UV circular dichroism spectra (195–260 nm) were collected using a JASCO J-715 spectropolarimeter (Easton, MD, USA). […] Each spectrum is the average of three independent measurements.
as §6

hSR [12] = target: T3, hSR; design: method as in PMID 23992455; settings: wt hSR, cited from earlier work
hSR [13] = target: T3, hSR; design: method as in PMID 23992455; settings: cited from earlier work; for Kd: hSR
hSR [14] = target: T3, hSR; assay: L-Ser dehydration (LDH-coupled assay); format: biochemical; settings: hSR saturated with ATP
Experimental: as §3, §4

[15] = 2 mM ATP, preliminary, data not shown

Nc1ncnc2c1ncn2[C@@H]1O[C@H](COP(=O)(O)O)[C@@H](O)[C@H]1O [AMP]
fold decrease in Km (StTdcB): 7.7 fold | fold increase in Vmax (StTdcB): 3 fold

Nc1ncnc2c1ncn2[C@@H]1O[C@H](COP(=O)(O)OP(=O)(O)OP(=O)(O)O)[C@@H](O)[C@H]1O [ATP]
Increase (fold increase of catalytic efficiency kcat/Km in the presence of ATP) (Q89A-hSR [1]): 1.6 fold | Increase (fold increase of catalytic efficiency kcat/Km in the presence of ATP) (Q89M-hSR [2]): 1.8 fold | Increase (fold increase of catalytic efficiency kcat/Km in the presence of ATP) (hSR [3]): 2 fold and 1.9 fold | Increase (fold increase of catalytic efficiency kcat/Km in the presence of ATP) (Q89A-hSR [4]): 3.3 fold | Increase (fold increase of catalytic efficiency kcat/Km in the presence of ATP) (Q89M-hSR [5]): 3.9 fold | Increase (fold increase of catalytic efficiency kcat/Km in the presence of ATP) (Q89A-hSR [6]): 2.3 fold | Increase (fold increase of catalytic efficiency kcat/Km in the presence of ATP) (Q89M-hSR [7]): 2.8 fold | Increase (fold increase of catalytic efficiency kcat/Km in the presence of ATP) (hSR [8]; 2 mM ATP vs absence of nucleotide): 4.0 fold | fold increase of specific dehydratase activity (Q89A-hSR [9]; [15]): about 4 fold | effect on activity of further addition of ATP (Q89A-hSR [9]; ATP up to 10 mM): not increased | cooperativity of ATP binding (activity assay) (Q89A-hSR [9]; saturating 300 mM L-Ser): non-cooperative | fold increase of specific dehydratase activity (Q89M-hSR [10]; [15]): about 4 fold | effect on activity of further addition of ATP (Q89M-hSR [10]; ATP up to 10 mM): not increased | cooperativity of ATP binding (activity assay) (Q89M-hSR [10]; saturating 300 mM L-Ser): non-cooperative | EC50 (Q89M-hSR [10]; saturating 300 mM L-Ser, read-out: half-maximal activation (EC50) by ATP, L-Ser dehydratase activity): 21 ± 2 µM | difference between KD and EC50 of ATP (Q89M-hSR [11]; Q89M-hSR, KD without substrate vs EC50 with 300 mM L-Ser): 6 fold | cooperativity of ATP binding (fluorimetric titration) (Q89M-hSR [11]; Q89M-hSR, absence of substrate): no cooperativity | fold increase in fluorescence emission intensity upon ATP binding (Q89M-hSR [11]; Q89M-hSR, excitation at 412 nm, absence of substrate): 1.65 fold | Kd (Q89M-hSR [11]; Q89M-hSR, ligand 2 Glycine (1 mM)): 48 ± 5 µM | Kd (Q89M-hSR [11]; Q89M-hSR, no ligand 2 (absence of substrate/glycine)): 154 ± 13 µM | fold increase of specific dehydratase activity (hSR [12]; 2 mM ATP): 7 fold | Hill coefficient n of ATP dependence of L-Ser dehydratase activity (hSR [12]; sigmoidal fit): 1.7 ± 0.2 and 1.7 | EC50 (hSR [12]; sigmoidal fit, read-out: half maximal effective concentration of ATP (EC50), L-Ser dehydratase activity): 220 ± 10 µM | Kd (hSR [13]; ligand 2 Glycine): 4.9 ± 0.6 µM | Hill coefficient of nucleotide binding (hSR [13]; human enzyme): about 2 | Hill coefficient n, fluorimetric titration with ATP (hSR [13]; wt hSR, sigmoidal fit): 1.8 ± 0.1 | EC50 (hSR [13]; wt hSR, sigmoidal fit, read-out: EC50 of ATP, fluorimetric titration): 257 ± 10 µM

N[C@H](CO)C(=O)O [D-Ser, D-serine]
kcat (hSR [8]; −ATP): 0.0283 ± 0.0017 s⁻¹

NCC(=O)O [Glycine]
fold higher affinity for Q89M-hSR (vs wt hSR) (Q89M-hSR [11]; Q89M-hSR vs hSR): more than 60 fold | Kd (Q89M-hSR [11]; Q89M-hSR, ligand 2 ATP (2 mM)): 28 ± 3 µM | Kd (Q89M-hSR [11]; Q89M-hSR, no ligand 2 (absence of ATP)): 110 ± 2 µM | Kd (hSR [13]; ligand 2 ATP): 470 ± 30 µM | Kd (hSR [13]; no ligand 2): 7000 ± 300 µM

N[C@@H](CO)C(=O)O [L-Ser, L-serine]
dehydratase activity efficiency relative to racemisation (hSR [14]): 15 fold

From PMC5998037, “Glutamine 89 is a key residue in the allosteric modulation of human serine racemase activity by ATP” (Scientific Reports, 2018)
